Measurements reported in patent EP0468497B1, “Peptide-antagonists of bombesin/GRP” (MERRELL PHARMACEUTICALS INC., priority 1990, dated 1992).
Non-standard residues stand in square brackets, D forms with d. Residues, ends and D or L forms follow the SMILES beside them. *: point of attachment. Palmitoyl = CCCCCCCCCCCCCCCC(=O)*; Lauroyl = CCCCCCCCCCCC(=O)*; Octanoyl = CCCCCCCC(=O)*

The molecules below were run against T1, bombesin receptor (Mus musculus, UniProt P21729) (assay: Affinity for the bombesin receptor by competition at the receptor for iodinated GRP (125I-GRP), pancreas membranes). Settings: competition with 125I-GRP, 90 minutes at room temperature, read-out: Bombesin Receptor Binding (Example 5).
T1 construct: The pancreata from one or more mice were pooled, minced, and homogenized; from tissue; host or cells: mouse pancreas
T1 sequence (P21729 whole entry): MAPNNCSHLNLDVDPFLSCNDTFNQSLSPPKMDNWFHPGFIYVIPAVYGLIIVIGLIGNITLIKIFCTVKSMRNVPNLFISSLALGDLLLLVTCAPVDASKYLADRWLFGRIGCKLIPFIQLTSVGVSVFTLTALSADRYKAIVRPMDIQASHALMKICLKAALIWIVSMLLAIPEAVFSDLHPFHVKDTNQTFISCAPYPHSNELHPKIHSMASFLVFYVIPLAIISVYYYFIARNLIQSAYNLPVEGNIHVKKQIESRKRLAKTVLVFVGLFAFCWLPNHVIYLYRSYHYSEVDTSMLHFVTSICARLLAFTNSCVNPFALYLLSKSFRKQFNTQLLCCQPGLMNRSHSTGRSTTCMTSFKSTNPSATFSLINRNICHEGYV
Design: species or system mice
Method: The pancreata from one or more mice were pooled, minced, and homogenized in 50 mM HEPES (pH 7.4) containing 120 mM NaCl and 5 mM KCl at 4°C and centrifuged at 37,500 X g for 15 minutes. The pellet was resuspended in 50 mM HEPES (pH 7.4) containing 10 mM EDTA and 300 mM KCl and incubated for 30 minutes at 4°C. The suspension was centrifuged as above and the pellet was washed two times in 50 mM HEPES (pH 7.4) containing protease inhibitors (10 µM phenylmethylsulfonyl fluoride, 1 µM thiorphan, 40 µg/ml bacitracin, 10mM iodoacetic acid and 4 µg/ml leupeptin), and again centrifuged. The tissue was then resuspended in incubation buffer (1ml per 4 mg pancreas) and incubated for 15 minutes at room temperature, then 250 µl was added to each assay tube to commence the assay. The assay tubes contained incubation buffer consisting of 50 mM HEPES (pH 7.4), 0.5% BSA, protease inhibitors, 2 mM MnCl2, 1 µM somatostatin, and concentrations of ^125I-GRP and peptides as needed in a final volume of 500 µl. The assay was allowed to proceed to equilibrium for 90 minutes at room temperature. After this time, the contents of each tube was rapidly filtered over Whatman GF/B filters presoaked in 0.1% polyethyleneimine and the filters were rapidly washed three times with ice-cold 50 mM HEPES (pH 7.4). Filter-bound radioactivity was quantitated in a gamma counter. Competition of iodinated GRP binding by test compounds or standards was expressed as a percentage of ^125I-GRP binding in the absence of peptide. Affinity and maximal binding were calculated with Ligand (Biosoft, Cambridge, UK).
For `CCCCCCCC(=O)N[C@@H](CCC(N)=O)C(=O)N[C@@H](Cc1c[nH]c2ccccc12)C(=O)N[C@@H](C)C(=O)N[C@H](C(=O)N[C@H](C)C(=O)N[C@@H](Cc1c[nH]cn1)C(N)=O)C(C)C` [Example 4, N-(n-Octanoyl)-Gln-Trp-Ala-Val-ala-His-NH2] (Octanoyl-QWAV[dA]H-NH2), the Kd was no more than 50 nM.
Molecule `CCCCCCCCCCCC(=O)N[C@@H](CCC(N)=O)C(=O)N[C@@H](Cc1c[nH]c2ccccc12)C(=O)N[C@@H](C)C(=O)N[C@H](C(=O)N[C@H](C)C(=O)N[C@@H](Cc1c[nH]cn1)C(=O)N[C@@H](CC(C)C)C(N)=O)C(C)C` [Example 2, N-(Lauroyl)-Gln-Trp-Ala-Val-ala-His-Leu-NH2] (Lauroyl-QWAV[dA]HL-NH2) has a Kd of no more than 500 nM.
`CCCCCCCCCCCCCCCC(=O)N[C@@H](CCC(N)=O)C(=O)N[C@@H](Cc1c[nH]c2ccccc12)C(=O)N[C@@H](C)C(=O)N[C@H](C(=O)N[C@H](C)C(=O)N[C@@H](Cc1c[nH]cn1)C(=O)N[C@@H](CC(C)C)C(N)=O)C(C)C` [Example 3, N-(Palmitoyl)-Gln-Trp-Ala-Val-ala-His-Leu-NH2] (Palmitoyl-QWAV[dA]HL-NH2) gave a Kd of no more than 500 nM.
`CCCCCCCC(=O)N[C@@H](CCC(N)=O)C(=O)N[C@@H](Cc1c[nH]c2ccccc12)C(=O)N[C@@H](C)C(=O)N[C@H](C(=O)N[C@H](C)C(=O)N[C@@H](Cc1c[nH]cn1)C(=O)N[C@@H](CC(C)C)C(N)=O)C(C)C` [Example 1, N-(n-Octanoyl)-Gln-Trp-Ala-Val-ala-His-Leu-NH2] (Octanoyl-QWAV[dA]HL-NH2) gave a Kd of no more than 50 nM.
